# Experimental data from patent US5977065A, “Bacterial nitroreductase for the reduction of CB1954 and analogues thereof to a cytotoxic form” (Cancer Research Campaign Technology Limited, priority 1991, dated 1999).
# Legend:
# V79 cells = experiment: Survival (colony forming ability) of V79 cells with enzyme-activated prodrugs (Table 8); assay type: cell-based
# Protocol: (§1) Generation of cytotoxicity by the action of the E. coli nitroreductase of Example 1 upon the prodrugs 4-[bis(2-chloroethyl)amino]phenylcarbamic acid 4'-nitrobenzyl ester (I where R^1 NH2 =III) and N-4-nitrobenzyloxy-carbonyl-actinomycin D (V) are shown in Table 8.
# (§2) The effect of enzyme-activated prodrugs on the survival of V79
# (§3) cells. 1 ml volumes of V79 cells (2 × 10^5 /ml) were incubated
# (§4) with prodrug, 500 μM NADH, and 10 μg/ml enzyme. After a 2 hour
# (§5) incubation at 37° C., the cells were harvested and assayed for
# (§6) their colony forming ability, and the supernatant assayed for
# (§7) the concentration of remaining prodrug by HPLC.
# E. coli nitroreductase [1] = biological target: T1, E. coli nitroreductase (Escherichia coli, UniProt P38489); experiment: % drug reduction in the V79 incubations, remaining prodrug by HPLC (Table 8); assay type: biochemical
# T1 construct: endogenous in cells; host or cells: E. coli B cell paste; endogenous enzyme purified by Phenyl-Sepharose and Q-Sepharose chromatography, not recombinant
# Protocol: as §1, §2, §3, §4, §5, §6, §7
# E. coli B nitroreductase [2] = biological target: T2, E. coli B nitroreductase (Escherichia coli, UniProt P38489); experiment: Formation of actinomycin D by the nitroreductase upon prodrug V (HPLC); assay type: biochemical; details: V 100 μM, 500 μM NADH, enzyme 2 μg/ml, pH7, 37° C.
# T2 construct: endogenous in cells; host or cells: E. coli B cell paste; endogenous enzyme purified by Phenyl-Sepharose and Q-Sepharose chromatography, not recombinant
# Protocol: Disappearance of the prodrug N-4-nitro-benzyloxycarbonyl-actinomycin D (V) and formation of actinomycin D during incubation with the E. coli B nitroreductase of Example 1 is shown in FIG. 2.
# [3] = In vivo toxicity of prodrug in mice; details: for Weight as % of Day 0, Day 2 / Weight as % of Day 0, Day 3 / Weight as % of Day 0, Day 7 / Weight as % of Day 0, Day 9: mice
# Protocol: The actinomycin D prodrug (AMDPD) of formula V was tested for toxicity in mice. Groups of 3 mice were given 1, 10 or 100 mg/kg body weight i.p. of AMPD, and two further groups of 3 mice were given 1 and 10 mg/kg body weight i.p. of actinomycin D (AMD) dissolved in arachis oil. A further group of 3 mice were untreated, and a final group of 3 mice were given arachis oil i.p. only.
# The body weight of the mice were monitored over 9 days. All mice treated with 10 mg/kg of AMD were dead by day 1. […] In practice, the toxicity of AMDPD is likely to be even lower, since the preparation of AMDPD used contains about 1% unconverted AMD.
# E. coli nitroreductase [4] = biological target: T1, E. coli nitroreductase; experiment: Cofactor ability for the reduction of CB 1954 (FIG. 1); assay type: biochemical; details: compared with NADH; CB 1954 100 μM, reduced cofactor 500 μM
# Protocol: (§8) At various times aliquots (10 μl) were injected onto a Partisil SCX (240×4.7 mm) HPLC column and eluted isocratically (2 ml/min) with 100 mM NaH2 PO4. The eluate was continuously monitored for absorption at 320, 260 and 360 nm and the concentration of CB 1954 calculated by integration of the peak corresponding to this compound on the HPLC trace.
# (§9) The ability of the nitroreductase enzyme to be able to use a synthetic cofactor in place of NADH or NADPH for the reduction of CB 1954 is shown in FIG. 1. […] Therefore 1,4-dihydro-nicotinic acid riboside is a selective cofactor for the E. coli nitroreductase enzyme and cannot be used by mammalian DT diaphorase.
# Walker DT diaphorase = biological target: T3, Walker DT diaphorase (Rattus norvegicus, UniProt P05982); experiment: as above; assay type: biochemical; details: CB 1954 100 μM, reduced cofactor 500 μM
# T3 construct: the enzyme isolated from the Walker tumour, EC.1.6.99.2; from tissue; host or cells: Walker tumour (Walker cell)
# T3 sequence (P05982 2-274 limits assumed): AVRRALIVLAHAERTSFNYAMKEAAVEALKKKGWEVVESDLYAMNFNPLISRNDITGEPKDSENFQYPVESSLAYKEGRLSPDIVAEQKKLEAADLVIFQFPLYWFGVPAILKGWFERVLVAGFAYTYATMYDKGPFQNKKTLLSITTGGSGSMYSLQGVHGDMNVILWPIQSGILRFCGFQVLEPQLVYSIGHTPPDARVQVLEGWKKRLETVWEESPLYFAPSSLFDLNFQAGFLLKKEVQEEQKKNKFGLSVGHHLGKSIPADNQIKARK
# Protocol: as §8, §9
# E. coli B nitroreductase [5] = biological target: T2, E. coli B nitroreductase; experiment: Formation of mitomycin C by the nitroreductase upon prodrug VII (HPLC); assay type: biochemical; details: VII 100 μM, 500 μM NADH, enzyme 5 μg/ml, pH7, 37° C.
# Protocol: Prodrug VII (100 μM) and cofactor (500 μM NADH) were incubated with enzyme (5 μg/ml E. coli B nitroreductase of Example 1) in 10 mM sodium phosphate buffer (pH7) in air at 37° C. At various times aliquots (10 μl) were injected onto a Partisphere C18 reverse-phase (150×4.7mm) HPLC column and eluted isocratically (2.0 ml/min) with 50% methanol in water. The eluate was continuously monitored for absorption at 260 and 340 nm and the concentration of the drugs calculated by integration of the peak corresponding to the compound on the HPLC trace.
# [6] = NR 10 μg/ml + 1 μM prodrug + 500 μM NADH
# T1 sequence (P38489 whole entry): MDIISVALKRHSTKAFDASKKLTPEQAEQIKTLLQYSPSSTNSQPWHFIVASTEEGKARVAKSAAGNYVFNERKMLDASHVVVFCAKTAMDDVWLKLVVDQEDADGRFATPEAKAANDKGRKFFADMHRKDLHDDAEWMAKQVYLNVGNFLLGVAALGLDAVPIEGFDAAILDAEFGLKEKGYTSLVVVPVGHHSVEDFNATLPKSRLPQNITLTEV
# T2 sequence (P38489 whole entry): as above
compound,measurement,setting,value
"Cc1c2oc3c(C)ccc(C(=O)NC4C(=O)NC(C(C)C)C(=O)N5CCCC5C(=O)N(C)CC(=O)N(C)C(C(C)C)C(=O)OC4C)c3nc-2c(C(=O)NC2C(=O)NC(C(C)C)C(=O)N3CCCC3C(=O)N(C)CC(=O)N(C)C(C(C)C)C(=O)OC2C)c(NC(=O)OCc2ccc([N+](=O)[O-])cc2)c1=O (stereo not drawn) [V, N-4-Nitrobenzyloxycarbonyl-actinomycin D]",% SURVIVAL,V79 cells; 1 μM prodrug alone,98.3%
same,% SURVIVAL,V79 cells; 10 μM prodrug alone,39.3%
same,% SURVIVAL,V79 cells; [6],27.4%
same,% DRUG REDUCTION,E. coli nitroreductase [1]; 1 μM prodrug alone,< 1.0%
same,% DRUG REDUCTION,E. coli nitroreductase [1]; 10 μM prodrug alone,< 1.0%
same,% DRUG REDUCTION,E. coli nitroreductase [1]; [6],90.5%
same,% DRUG REDUCTION,E. coli nitroreductase [1]; NR 10 μg/ml + 10 μM prodrug + 500 μM NADH,93%
same,release of actinomycin D from the prodrug,E. coli B nitroreductase [2],Only when the enzyme was present was actinomycin D released
same,"Weight as % of Day 0, Day 2",[3]; dose 1.0 mg/kg i.p.,102%
same,"Weight as % of Day 0, Day 3",[3]; dose 1.0 mg/kg i.p.,101%
same,"Weight as % of Day 0, Day 7",[3]; dose 1.0 mg/kg i.p.,101%
same,"Weight as % of Day 0, Day 9",[3]; dose 1.0 mg/kg i.p.,103%
same,"Weight as % of Day 0, Day 2",[3]; dose 10 mg/kg i.p.,109%
same,"Weight as % of Day 0, Day 3",[3]; dose 10 mg/kg i.p.,105%
same,"Weight as % of Day 0, Day 7",[3]; dose 10 mg/kg i.p.,108%
same,"Weight as % of Day 0, Day 9",[3]; dose 10 mg/kg i.p.,110%
same,deaths,"[3]; dose 100 mg/kg i.p., groups of 3 mice, Day 2",1 dead
same,"Weight as % of Day 0, Day 2",[3]; dose 100 mg/kg i.p.,96.4%
same,"Weight as % of Day 0, Day 3",[3]; dose 100 mg/kg i.p.,95.6%
same,"Weight as % of Day 0, Day 7",[3]; dose 100 mg/kg i.p.,95%
same,"Weight as % of Day 0, Day 9",[3]; dose 100 mg/kg i.p.,96%
"O=C(O)C1=CN([C@@H]2O[C@H](CO)[C@@H](O)[C@H]2O)C=CC1 [1,4-dihydro-nicotinic acid riboside]",ability to act as a cofactor for the reduction of CB 1954,E. coli nitroreductase [4],equal efficiency
same,ability to act as a cofactor for the reduction of CB 1954,Walker DT diaphorase,cannot utilise
"COC12C(COC(N)=O)C3=C(C(=O)C(C)=C(N)C3=O)N1CC1C2N1C(=O)OCc1ccc([N+](=O)[O-])cc1 (stereo not drawn) [VII, N-4-Nitrobenzyloxycarbonyl-mitomycin C]",release of mitomycin C from the prodrug,E. coli B nitroreductase [5],Only in the presence of the enzyme is mitomycin C released
